Laboratory results published in patent publication US10487046B1, “Dihydroxytyrosol hexamethylene-1,6-dicarbamate having antioxidant activity and a method of preparing the same” (SHAANXI UNIVERSITY OF SCIENCE AND TECHNOLOGY, priority 2019, dated 2019).

Assay: DPPH Radical Scavenging Activity Assay
Assay type: biochemical
Details: for Scavenging Activity (%) (n = 3): DPPH 0.2×10^−4 mol/L in methanol, 30 minutes, 517 nm
Excerpt: DPPH Radical Scavenging Activity Assay 2,2-Diphenyl-1-picryl hydrazyl (DPPH) is an organic compound composed of a stable organic radical. In the DPPH molecule, due to the presence of multiple electron-withdrawing —NO2 and large it bonds of the benzene ring, nitrogen free radical is stabilized. Its methanol solution is purple and has a maximum absorption peak at 517 nm. After the addition of an antioxidant, DPPH captures an electron to be paired with the free electron, and the purple fades and turns into a yellow substance. The absorption at 517 nm disappears, and the degree of fading is quantitatively related to the number of electrons it captures. Based on this principle, a spectrophotometer is used to detect the change of the absorbance of the DPPH radical and the sample solution, and the ability of the sample to provide hydrogen atoms and scavenge free radicals can be measured. (a) Preparation of DPPH solution: measuring exact amount of 2,2-diphenyl-1-picryl hydrazyl (DPPH) and dissolving in methanol to prepare a 0.2×10^−4 mol/L DPPH solution, stored at 0° C. in dark. (b) Preparation of sample solutions: Vc (vitamin C, positive control), dihydroxytyrosol hexamethylene-1,6-dicarbamate, and hydroxytyrosol (control) were dissolved in methanol and diluted in a concentration gradient. Measuring the scavenging activity of the sample solutions: 2 mL of the sample solutions (table 1) at each concentration gradient was taken, 2 mL 0.2×10^−4 mol/L DPPH solution was added, the mixture was mixed and reacted at room temperature in dark for 30 minutes, and methanol was then added to adjust final volume. The absorbance Ai was measured at 517 nm. 2 mL control solution and 2 mL methanol were mixed, and the absorbance Aj was measured. 2 mL DPPH solution and 2 mL methanol were mixed, and the absorbance Ao was measured. (d) The scavenging activity of the sample solution and control solutions is calculated according to the following calculation formula and shown in Table 3 and FIG. 3. Scavenging activity (%)=100×[1−(Ai−Aj)/Ao]

Compound | Scavenging Activity (%) (n = 3) (1.76 ppm) | Scavenging Activity (%) (n = 3) (8.80 ppm) | Scavenging Activity (%) (n = 3) (21.12 ppm) | Scavenging Activity (%) (n = 3) (42.24 ppm) | Scavenging Activity (%) (n = 3) (79.20 ppm) | Scavenging Activity (%) (n = 3) (112.64 ppm) | Scavenging Activity (%) (n = 3) (281.60 ppm) | Scavenging Activity (%) (n = 3) (492.80 ppm) | Scavenging Activity (%) (n = 3) (792.00 ppm) | Scavenging Activity (%) (n = 3) (915.20 ppm) | DPPH radical scavenging activity (in words) (1.76 to 915.20 ppm) | DPPH radical scavenging activity compared with hydroxytyrosol (B) (at same concentration)
O=C1O[C@H]([C@@H](O)CO)C(O)=C1O [Vc, Vitamin C] | 21.35 | 30.80 | 87.03 | 95.44 | 96.06 | 97.88 | 98.41 | 99.04 | 99.42 | 99.16 |  | 
OCCc1ccc(O)c(O)c1 [B, hydroxytyrosol] | 8.69 | 10.97 | 18.10 | 28.89 | 41.44 | 45.83 | 60.58 | 72.81 | 76.35 | 80.61 |  | 
O=C(NCCCCCCNC(=O)OCCc1ccc(O)c(O)c1)OCCc1ccc(O)c(O)c1 [A, dihydroxytyrosol hexamethylene-1,6-dicarbamate] | 19.87 | 23.68 | 37.02 | 68.43 | 76.52 | 86.33 | 91.48 | 95.31 | 96.66 | 97.14 | obvious DPPH radical scavenging activity in a concentration dependent manner | better DPPH radical scavenging activity than hydroxytyrosol (B)
